# Results reported in patent US20240009269A1 (priority 2020, published 2024).
# Read-outs that look alike come from different tables or passages of the source.
# What was measured:
# dhBMECs in microvessels = assay: Analysis of cell behavior in tissue-engineered microvessels; assay type: cell-based, human
# Description: To monitor cell dynamics, cell loss and proliferation events were counted manually. Rates of cell loss (% h^−1), division (% h^−1), turnover (% h^−1), and cell loss at the site of a focal leak (%) were quantified from phase contrast imaging sequences, as reported previously. Briefly, the total number of endothelial cells was counted manually for each microvessel plane, utilizing a region approximately 100 μm wide corresponding to about a fifth of the channel circumference. Cell loss was identified by observing the removal of a cell from the microvessel. Cell loss from the monolayer occurred through two processes: (1) apoptotic loss, in which a cell constricts, releases its contents into the vessel lumen, which is then removed from the monolayer over a period of 20-60 minutes, and (2) non-apoptotic loss, in which a cell swells and disappears from the monolayer over a period of 2-6 minutes. Cell division was identified by observing cell compression, alignment of chromosomes, and the formation of daughter cells. The rate of turnover (% h^−1) is the difference between the rate of cell division and the rate of cell loss. A cell loss event was identified to be at the site of a focal leak if it occurred within <50 μm and <4 minutes of the occurrence of a focal leak. For a limited set of experiments, the WTC iPSC line [Kreitzer, F. R., et al., Am J Stem Cells, 2013. 2(2): p. 119-31] with GFP-tagged zona occludens-1 (Allen Cell Institute) was used to facilitate live-cell monitoring of tight junction organization.
# Confocal z-stacks (0.4 μm in thickness) at 40× magnification were obtained on a swept field confocal microscope system (Prairie Technologies). Illumination was provided by an MLC 400 monolithic laser combiner (Keysight Technologies). Complete reconstruction of the microvessel lumen required approximately four hundred slices. Confocal imaging was conducted before, during, and after exposure to 50 μM·minute melittin treatment.
# dhBMECs = assay: Cytotoxicity assay (EthD1/Hoechst live-cell imaging), dhBMECs; assay type: cell-based, human; conditions: for exposure time maintaining high cell viability: phase diagrams of dhBMECs and HCNs, 98% viability
# Method: DhBMECs were seeded on polystyrene 96-well plate, coated with 25 μg mL^−1 fibronectin and 50 μg mL^−1 collagen IV, at 2×10^5 cells cm^−2 in BBB induction medium. On day 1, the cells were washed twice with BBB maintenance medium with gentle pipetting up-and-down to remove non-adherent cells and incubated in the medium overnight. HCN2 cells were seeded in the tissue culture-treated 96-well plate at 3×10^3 cell cm^−2 in HCN2 cell culture medium and cultured for two days at 37° C., 5% CO2, with the medium change on day 1 after the seeding. The cytotoxicity assay was performed on day 2 after seeding. Briefly, in the cytotoxicity assay, the cells were incubated with two dyes: a membrane-impermeable Ethidium homodimer-1 (EthD1, L3224, Thermo Fisher Scientific) to assess cell viability, and Hoechst 33342 nuclear stain (Cat. No. 62249, Thermo Fisher Scientific) and imaged on an epifluorescence microscope. In more detail, the cells were washed with BBB maintenance medium followed by incubation with 200 μL of 2 μg mL^−1 Hoechst 33342 and 10 μM EthD1 solution for 15-30 minutes at 37° C., 5% CO2. After the incubation, 100 μL of the solutions were replaced with Hoechst 33342 and EthD1 solutions containing melittin using a multichannel pipettor, resulting in final 0.75 μM, 5 μM, and 10 μM melittin concentrations. After the addition of treatment solutions, large 6×6 epifluorescence images were collected every ˜3.5 minutes per condition using a 20×objective and a Nikon Eclipse TiE microscope, equipped with 37° C. chamber, for 60-90 minutes. Out-of-focus portions of images were manually blacked out using ImageJ. Afterwards, the images were analyzed using a custom pipeline in image analysis software CellProfiler 3.1.8 to count Hoechst-positive objects (all cells) and EhtD1-positive objects (dead cells). The fraction of viable cells (F) was calculated using equation 2 below:
# where N(EthD1)i is the number of EthD1-positive objects at time i, N(EthD1)o is the number of EthD1-positive objects at time t=2 minutes (initial time of imaging), N(Hoechst)max is the maximum number of Hoechst-positive objects counted in an image over the imaging time-course. For dhBMECs, the experiments were repeated a total of five times with two independent iPSC differentiations. In the experiment, all media removal was done by gentle pipetting and not aspiration by vacuum. For HCN2 cells, the experiments were performed a total of three times on day 2 and day 3 after seeding.
# [1] = system: human cortical neurons (HCNs, HCN-2 cells)
# [2] = 5 μM melittin, continuous exposure
compound,measurement,setting,value
CC[C@H](C)[C@H](NC(=O)CN)C(=O)NCC(=O)N[C@@H](C)C(=O)N[C@H](C(=O)N[C@@H](CC(C)C)C(=O)N[C@@H](CCCCN)C(=O)N[C@H](C(=O)N[C@@H](CC(C)C)C(=O)N[C@H](C(=O)N[C@H](C(=O)NCC(=O)N[C@@H](CC(C)C)C(=O)N1CCC[C@H]1C(=O)N[C@@H](C)C(=O)N[C@@H](CC(C)C)C(=O)N[C@H](C(=O)N[C@@H](CO)C(=O)N[C@@H](Cc1c[nH]c2ccccc12)C(=O)N[C@H](C(=O)N[C@@H](CCCCN)C(=O)N[C@@H](CCCNC(=N)N)C(=O)N[C@@H](CCCCN)C(=O)N[C@@H](CCCNC(=N)N)C(=O)N[C@@H](CCC(N)=O)C(=O)N[C@@H](CCC(N)=O)C(N)=O)[C@@H](C)CC)[C@@H](C)CC)[C@@H](C)O)[C@@H](C)O)C(C)C)C(C)C [melittin],cell division rate,dhBMECs in microvessels; across melittin doses 3-100 μM·minute,about 1 % h^−1
same,cell loss rate following melittin exposure,dhBMECs in microvessels; doses 3-100 μM·minute,dose-dependent
same,turnover of dhBMECs (division rate minus loss rate),dhBMECs in microvessels; doses 3-100 μM·minute,negative
same,"cell response, GFP-tagged ZO1 dhBMEC microvessels",dhBMECs in microvessels; high melittin doses (100 μM·min),cells contracted
same,exposure time maintaining high cell viability,dhBMECs; 0.75 μM melittin,≥ 20 min
same,time for which viability is largely unaffected,dhBMECs; 5 μM melittin,about 20 minutes
same,time at which the viability reached 50% (τ1/2),dhBMECs; [2],~40 min
same,exposure time maintaining high cell viability,dhBMECs; 10 μM melittin,≤ 10 min
same,decrease of viability,dhBMECs; dose of 100 μM·minute,< 2%
same,time high viability (≥98%) is maintained,[1]; 0.75 μM melittin,~23 min
same,time for which viability is largely unaffected,[1]; 5 μM melittin,about 20 minutes
same,time high viability (≥98%) is maintained,[1]; 5 μM melittin,~12 min
same,time at which the viability reached 50% (τ1/2),[1]; [2],~30 min
same,time high viability (≥98%) is maintained,[1]; 10 μM melittin,~12 min
same,decrease of viability,[1]; dose of 100 μM·minute,< 2%
